Data reported in patent US20090137641A1, “Potassium Channel Activators for the Prevention and Treatment of Dystonia and Dystonia-Like Symptoms” (priority 2006, published 2009).
Several values for one entry are separate records, joined by “and”; a condition that tells them apart may be missing. Identical values can stand only once. Like-named read-outs stand apart in the source and are kept apart here.

Key:
[1] = tested on: L-DOPA induced dyskinesia in 6-OHDA lesioned rats; assay: chronic model of L-DOPA induced dyskinesia in unilaterally 6-OHDA lesioned rats (dyskinesia score); assay type: in vivo; design: side effects: dose or concentration left out as unconfirmed
Excerpt: Method: The model has been developed by Cenci, Lee and Bjorklund (L-DOPA-induced dyskinesia in the rat is associated with striatal overexpression of prodynorphin- and glutamic acid decarboxylase mRNA, Eur J. Neurosci. 1998; 10:2694-706) and was modified to show more severe dyskinesia. In brief, rats are first unilaterally lesioned in the medial forebrain bundle resulting in a near complete loss of the mesostriatal dopamine pathway. After a recovery, rats receive daily doses of both, L-DOPA and benserazide. Within less than 3 weeks, rats develop typical dyskinetic movements, both affecting their forearms and the oral regions. […] The dyskinesia can be quantified using an easy and reliable scoring system developed by Cenci et al.
Dopamine-denervating lesions were performed by unilateral injections of 8 μg 6-OHDA in the left medial forebrain bundle of female Sprague-Dawley rats. All rats were tested for amphetamine-induced rotational behaviour 2 weeks after the injection. Rats showing >4 ipsilateral rotations/min over a 90-minute period were presumed to have a striatal dopamine depletion of more than 90%. At 4 weeks post lesion, 2 groups started to receive chronic treatment with either 20 mg/kg levodopa and 15 mg/kg benserazide or vehicle for 20 days. For rating, dyskinesia was classified into three subtypes (limb, axial and orolingual) and scored from 0 (=absent) to 4 (=permanent, not suppressible) over 200 minutes and every 30 minutes.
Results and Discussion: For drug testing, retigabine (2.5 and 5 mg/kg) was administered additional to levodopa and vehicle respectively. Effects of drug action in comparison to vehicle controls were detected by adding up the severity scores of each observation time.
To test the effect of flupirtine, the compound was administered at the dose of 10 mg/kg i.p. after administration of L-DOPA in these rats. A full cross over design was utilized to account for individual variability. […] The studies are ongoing and will we extended to cover a full dose range. Also, other neuronal potassium channel openers covered by the patent application will be tested. […]

dt^sz mutant hamster = assay type: in vivo, Syrian golden hamsters; details: for Maximum severity 1st h, drug: individual animals and Mean, score 0-6; for Latency to onset (min), Drug: time to stage 2, mean ± S.E.; for suppressing the symptoms of dystonia (summary statement): summary for the two animal models of dystonia/dyskinesia, no dose given; for Latency max (min), drug: latency to stage 6
Excerpt: Animals The dt^sz mutant hamsters (Syrian golden hamsters), used in the present experiments, were obtained by selective breeding as described in detail elsewhere (Richter and Löscher, 1998). In this inbred line of mutant hamsters the motor disturbances are transmitted by a recessive gene. All animal groups consisted of male and female hamsters, because there was no indication of sex-related differences in the severity of dystonia or in the response to drugs (Richter and Löscher, 1998). The animals were born and kept under controlled environmental conditions (23-25° C., 50-60% humidity, 13 h light/11 h dark cycle) with free access to standard Altromin 7204 diet and water. In cases of oral administrations the food was deprived for 2 h prior to the experiments. All experiments were carried out in the morning (08.30-12.00 a.m.) at controlled temperatures (23-25° C.).
Induction of dystonic episodes and severity-score of dystonia. […] After this procedure, dt^sz hamsters develop a sequence of abnormal movements and postures. Dystonia is the predominant symptom in these animals. The severity of dystonia can be rated by following score-system (Richter and Löscher, 1998): stage 1, flat body posture; stage 2, facial contortions, rearing with forelimbs crossing, disturbed gait with hyperextended forepaws; stage 3, hyperextended hindlimbs so that the animals appear to walk on tiptoes; stage 4, twisting movements and loss of balance; stage 5, hindlimbs hyperextended caudally; stage 6, immobilisation in a twisted, hunched posture with hind- and forelimbs tonically extended forward. After reaching the individual maximum stage the hamsters recover within 2-5 hours. The individual maximum stage of dystonia is usually reached within 3 hours after the hamsters were placed into the new cage. Therefore, the animals have to be observed for 3 h after the induction of dystonic attacks to determine the individual maximum stage reached after administrations of drugs or of vehicle (for pre- and post-drug control recordings).
In the present study, all animals were examined for the presence of dystonia after weaning at the age of 21 days by the triple stimulation procedure, including injections of saline. […] All groups of mutant hamsters used for investigations were repeatedly tested by triple stimulations (injections of saline) every 2 to 3 days after weaning until the severity of dystonia and latencies to the different stages were reproducible. The drug experiments were done in 30-42 days old hamsters, i.e. at an age of the maximum severity of dystonia.
Drug experiments The effects of the Kv7.2/7.3 channel activators retigabine (5, 7.5 and 10 mg/kg i.p. and 10 and 20 mg/kg p.o.) and flupirtine (10 and 20 mg/kg i.p.) were examined in groups of 6-10 dt^s/z hamsters. The total number of animals used for the present experiments was 68. The compounds were freshly dissolved in saline prior the experiments. Dystonic attacks were induced by the procedure of triple stimulation, as described above, but instead of saline the active compound was injected (injection volume: 5 ml/kg i.p. or p.o.). Pre- and post-drug control trials with the vehicle (injection volume: 5 ml/kg saline i.p. or p.o.) were undertaken 2-3 days before and 2-3 days after drug testing in the same animals. […] During this period the severity of dystonia, the latencies to the different stages and the side effects were noted. The rater of the severity score (and of the latencies to stages) was unaware whether the animals were treated with vehicle or an active principle. A second person who had done the preparation of the solutions observed the animals for behavioural effects. The side effects were not quantified, but locomotor activity and ataxia were determined according to a score system, as previously described (Löscher and Richter, 1994). […]

[2] = mean of 10 animals, 20 mg/kg i.p., age 36-38 days of life
[3] = 20 mg/kg p.o., first hour after administration

In the case of `CCOC(=O)Nc1ccc(NCc2ccc(F)cc2)nc1N` [Flupirtine, ethyl-N-[2-amino-6-(4-fluorophenylmethylamino)pyridin-3-yl]-carbamate], the tolerability ([1]; 10 mg/kg i.p. after administration of L-DOPA) is reported as “well tolerated”, the dyskinetic symptoms ([1]; 10 mg/kg i.p. after administration of L-DOPA, cross over design) is reported as “capable of suppressing the typical dyskinetic symptoms” and the antidystonic effects (dt^sz mutant hamster; 10 mg/kg i.p.) is reported as “did not exerted significant antidystonic effects”. The “Maximum severity 1st h, drug” value (dt^sz mutant hamster; 10 mg/kg i.p.) was 3 score (6×) and 2 score (2×), the “Latency to onset (min), Drug” value (dt^sz mutant hamster; 10.0 mg/kg i.p., n=8) was 6.9 ± 1.6 min and the adverse effects (dt^sz mutant hamster; 10 mg/kg i.p., within the first hour after administration) was “moderate hypolocomotion and ataxia”. For the same molecule, the ataxia (dt^sz mutant hamster; 20 mg/kg i.p.) was “more marked ataxia (lasting up to 90 min)”, the “latency to onset of dystonia” value (dt^sz mutant hamster; 20 mg/kg i.p.) was “increased the latency to onset of dystonia” and the progression of dystonia (dt^sz mutant hamster; 20 mg/kg i.p., first and second h) was “delayed the progression of dystonia”. For the same molecule, the locomotion (dt^sz mutant hamster; 20 mg/kg i.p., hyperlocomotion 15-60 min after injection) was “unequivocal hypolocomotion (5 to 15 min after injection) followed by hyperlocomotion”, the “maximum severity of dystonia” value (dt^sz mutant hamster; 20 mg/kg i.p., third h) was “reduced the maximum severity” and the “Latency to onset (min), Drug” value (dt^sz mutant hamster; 20.0 mg/kg i.p., n=10, *P<0.05) was 13.8 ± 3.8* min. The “Maximum severity 1st h (score of dystonia), drug” value (dt^sz mutant hamster; individual animals, 20 mg/kg i.p. (in 0.9% NaCl), dt^sz hamsters, age 36-38 days of life) was 2 score, the “Latency max (latency to stage 6), drug” value (dt^sz mutant hamster; individual animals, 20 mg/kg i.p., age 36-38 days of life) was 154 min and the “Latency onset (latency on stage 2), drug, Mean” value (dt^sz mutant hamster; [2]) was 13.8 min. For the same molecule, the “Maximum severity 1st h (score of dystonia), drug, Mean” value (dt^sz mutant hamster; [2]) was 2.0 score, the “Maximum severity 2nd h (score of dystonia), drug, Mean” value (dt^sz mutant hamster; [2]) was 2.6 score and the “Maximum severity 3rd h (score of dystonia), drug, Mean” value (dt^sz mutant hamster; [2]) was 2.9 score. The “suppressing the symptoms of dystonia (summary statement)” value (dt^sz mutant hamster) was “found to be effective”.
For `CCOC(=O)Nc1ccc(NCc2ccc(F)cc2)cc1N` [Retigabine, 2-amino-4-(4-fluorobenzylamino)-1-ethoxycarbonyl-aminobenzene], the side effects ([1]; higher dosage, first hour of observation) was “marked hypolocomotion and ataxia”, the “Latency max (min), drug” value (dt^sz mutant hamster; 5 mg/kg i.p., individual animals) was 43 min and 87 min and 39 min and the “Latency to onset (min), Drug” value (dt^sz mutant hamster; 5.0 mg/kg i.p., n=9) was 27.1 ± 17.7 min. The “Latency max (min), drug” value (dt^sz mutant hamster; 7.5 mg/kg i.p., individual animals) was 149 min, the “Latency to onset (min), Drug” value (dt^sz mutant hamster; 7.5 mg/kg i.p., n=6, *P<0.05) was 11.8 ± 1.0* min and the pain after injection (dt^sz mutant hamster; 10 mg/kg i.p., first 5 min after injection) was “writhed with pain”. For the same molecule, the “Latency to onset (min), Drug” value (dt^sz mutant hamster; 10.0 mg/kg i.p., n=9) was 7.1 ± 2.9 min, the “Maximum severity 1st h, drug” value (dt^sz mutant hamster; 10 mg/kg p.o.) was 3 score (6×) and 2 score and the “Latency max (min), drug” value (dt^sz mutant hamster; 10 mg/kg p.o., individual animals) was 168 min and 148 min. For the same molecule, the “Latency to onset (min), Drug” value (dt^sz mutant hamster; 10.0 mg/kg p.o., n=7) was 4.9 ± 2.9 min, the locomotor activity (dt^sz mutant hamster; 10 mg/kg p.o., two hamsters) was “moderate reduction of the locomotor activity” and the ataxia (dt^sz mutant hamster; [3]) was “seven animals exhibited moderate ataxia”. The hypolocomotion (dt^sz mutant hamster; [3]) was “five hamsters showed moderate hypolocomotion”, the “Maximum severity 1st h, drug” value (dt^sz mutant hamster; 20 mg/kg p.o.) was 2 score (9×) and 3 score and the “Latency max (min), drug” value (dt^sz mutant hamster; 20 mg/kg p.o., individual animals) was 104 min. The “Latency to onset (min), Drug” value (dt^sz mutant hamster; 20.0 mg/kg p.o., n=10) was 9.6 ± 2.0 min, the general condition (dt^sz mutant hamster; four hamsters, 5 mg/kg i.p. five days after 10 mg/kg i.p., one euthanized, dilated colon) was “bad general condition” and the behavioural effects (dt^sz mutant hamster; i.p. injection, within the first h after administration) was “moderate to unequivocal hypolocomotion (sometimes interrupted by short lasting periods of increased locomotor activity) and ataxia”. For the same molecule, the side effects (dt^sz mutant hamster; oral doses of 10 and 20 mg/kg) was “did not exert severe side effects”.
With `O=C1c2ccccc2C(Cc2ccncc2)(Cc2ccncc2)c2ccccc21` [XE-991, 10,10-bis(4-pyridinylmethyl)-9(10H)-anthracenone] the side effects (dt^sz mutant hamster; 6 mg/kg as printed, two out of 8 animals, facial contortions 10-20 min after administration) was “moderate to unequivocal hyperlocomotion and moderate ataxia (up to 180 min) and marked initial facial contortions”, the “latency to onset of dystonia” value (dt^sz mutant hamster; i.p., not illustrated) was “tended to be decreased” and the side effects (dt^sz mutant hamster; the higher dose, all hamsters) was “facial contortions, salivation and increased defecation”. For the same molecule, the “side effects: locomotion and ataxia” value (dt^sz mutant hamster; the higher dose, first h after administration) was “unequivocal hyperlocomotion and ataxia”.
For `COc1ccc(Cl)cc1C1(F)C(=O)Nc2cc(C(F)(F)F)ccc21` (stereo not shown) [maxipost, 3-(5-chloro-2-methoxyphenyl)-1,3-dihydro-3-fluoro-6-(trifluoromethyl)-2H-indole-2-one], the “suppressing the symptoms of dystonia (summary statement)” value (dt^sz mutant hamster) was “found to be active”.
